Results taken from ChEMBL document CHEMBL1148032, “Hexaprenoid hydroquinones, novel inhibitors of the reverse transcriptase of human immunodeficiency virus type 1” (J Nat Prod, 1993).

Key:
[1] = molecular target: Human immunodeficiency virus type 1 reverse transcriptase (Human immunodeficiency virus 1) (UniProt Q72547); assay: (§1) Inhibition of DNA dependent DNA polymerase activity of HIV1 BH10 recombinant reverse transcriptase p66/p51 assessed as residual enzyme activity
[2] = molecular target: T1, Human immunodeficiency virus type 1 reverse transcriptase (Human immunodeficiency virus 1, UniProt Q72547); assay: as §1
[3] = molecular target: Human immunodeficiency virus type 1 reverse transcriptase (Human immunodeficiency virus 1) (UniProt Q72547); assay: (§2) Inhibition of RNA dependent DNA polymerase activity of HIV1 BH10 recombinant reverse transcriptase p66/p51 assessed as residual enzyme activity by poly(rA)n.oligo(dT)12-18-directed incorporation of [3H]dTTP
[4] = molecular target: T1, Human immunodeficiency virus type 1 reverse transcriptase; assay: as §2
[5] = molecular target: T1, Human immunodeficiency virus type 1 reverse transcriptase; assay: Inhibition of RNase H activity of HIV1 BH10 recombinant reverse transcriptase p66/p51 assessed as residual enzyme activity […]

Row | Inhibition [1] [µM] | IC50 [2] [µM] | Inhibition [3] [µM] | IC50 [4] [µM] | IC50 [5] [µM] | SMILES
1 | 40 | 6.7 | 21.2 | 8.5 | > 250 | CC(=O)CC[C@@H]1[C@](C)(CC[C@@]2(O)[C@H](C)CC[C@@H]3OC(C)(C)CCC[C@@]32C)CCC[C@@]1(C)C(=O)Cc1cc(OS(=O)(=O)O)ccc1OS(=O)(=O)O [SHAAGROCKOL B]
2 | 44.4 | 4.2 | 11.1 | 2.8 | > 250 | C[C@@H]1CC=C2[C@@H](CCC[C@@]2(C)CC[C@@]2(C)C3=CCCC(C)(C)[C@H]3CC[C@@H]2C)[C@]1(C)Cc1cc(O)ccc1O
3 | 5 | 0.8 | 9.3 | 3.3 | > 250 | CC1=C(Cc2cc(OS(=O)(=O)O)ccc2OS(=O)(=O)O)[C@]2(C)CCC[C@@](C)(CC[C@@]3(O)[C@H](C)CC[C@@H]4OC(C)(C)CCC[C@@]43C)[C@H]2CC1 [SHAAGROCKOL C]
4 | 14.7 | 1.4 | 18.1 | 2.5 | > 250 | CC1=C(Cc2cc(O)ccc2O)[C@]2(C)CCC[C@@](C)(CC[C@@]3(O)[C@H](C)CC[C@@H]4OC(C)(C)CCC[C@@]43C)[C@H]2CC1

The next lines start with the molecule.

Row | SMILES | Inhibition [1] [µM] | IC50 [2] [µM] | Inhibition [3] [µM] | IC50 [4] [µM] | IC50 [5] [µM]
5 | CC1(C)CCC[C@]2(C)OC3CC[C@](C)(C4CC[C@]5(C)C4CC[C@]4(C)c6c(O)ccc(O)c6CC54)[C@]3(C)CCC12 (stereo not given in full) [TOXICOL B] | 56.2 | 8.2 | 11.1 | 3.7 | > 250
6 | CC1(C)CCC[C@]2(C)OC3CC[C@](C)(C4CC[C@]5(C)C4CC[C@]4(C)c6c(OS(=O)(=O)O)ccc(OS(=O)(=O)O)c6CC54)[C@]3(C)CCC12 (stereo not given in full) [TOXICOL A] | 5.2 | 2.7 | 6.5 | 3.1 | > 250
7 | C[C@@H]1CC=C2[C@@H](CCC[C@@]2(C)CC[C@@]2(C)C3=CCCC(C)(C)[C@H]3CC[C@@H]2C)[C@]1(C)Cc1cc(OS(=O)(=O)O)ccc1OS(=O)(=O)O [TOXIUSOL SODIUM] | 41.6 | 6.6 | 4.6 | 1.5 | > 250
8 | CC1(C)CCC[C@]2(C)OC3CC[C@](C)(C4CC[C@]5(C)C4CC[C@]4(C)C6=C(CC54)C(=O)C=CC6=O)[C@]3(C)CCC12 (stereo not given in full) | 54.5 | 4.5 | 28.6 | 13.2 | > 250
